These are literature values, as cited in US20170157095A1, “ALLISARTAN ISOPROXIL SOLID DISPERSION AND PHARMACEUTICAL COMPOSITION” (SHENZHEN SALUBRIS PHARMACEUTICALS CO., LTD, priority 2014, published 2017).

Molecules are shown by their SMILES.

In the case of `CCCCc1nc(Cl)c(C(=O)OCOC(=O)OC(C)C)n1Cc1ccc(-c2ccccc2-c2nnn[nH]2)cc1` [Allisartan isoproxil, 2-butyl-4-chloro-1-[2′-(1H-tetrazol-5-yl)-1,1′-biphenyl-methyl]-imidazole-5-carboxylic acid, 1-[(isopropoxy)-carbonyloxy]-methyl ester], the solubility in water result is reported as “low”.
